From PMC6131161, “Adjunctive use of celecoxib with anti-tuberculosis drugs: evaluation in a whole-blood bactericidal activity model” (Scientific Reports, 2018)
Values joined by “and” are separate entries in the source; they are usually repeats but may differ in a detail not shown here. Equal entries are not always repeated. “Also recorded” adds a separate entry of the source.

Columns and labels:
[1] = test system: Mycobacterium tuberculosis (H37Rv); assay: Whole-blood bactericidal activity (WBA) assay, ex vivo, blood of dosed healthy volunteers; assay type: cell-based; conditions: for WBAcum(0–8) / WBAmax: mean (SD); for bactericidal activity in the WBA assay (in words): drug alone, single oral dose, over 8 hours post-dose
[2] = Plasma pharmacokinetics in healthy volunteers (LC-MS/MS, non-compartmental analysis); conditions: for Cmax / Tmax / half-life / AUC(0-t): human, plasma, po; for Tmax: median (min, max); for half-life: mean (SD); for AUC(0-t): AUC(0–8)
clinical = conditions: human, in vivo, po, 10 mg/kg
[3] = Celecoxib alone 400 mg single oral dose, PZA group, n = 9
[4] = Celecoxib alone 400 mg single oral dose, RIF group, n = 9
[5] = celecoxib levels in plasma, PZA + C, celecoxib 400 mg with pyrazinamide 25 mg/kg oral, geometric mean (min, max)
[6] = celecoxib levels in plasma, RIF + C, celecoxib 400 mg with rifampicin 10 mg/kg oral, geometric mean (min, max)
[7] = TB drug + Celecoxib: pyrazinamide 25 mg/kg with celecoxib 400 mg oral, PZA group, n = 9
[8] = TB drug alone: pyrazinamide 25 mg/kg single oral dose, PZA group, n = 9
[9] = TB drug alone: pyrazinamide 25 mg/kg single oral dose, PZA group, n = 9, listed as PZA
[10] = 25 mg/kg, pyrazinamide levels in plasma, PZA alone, 25 mg/kg single oral dose, geometric mean (min, max)
[11] = pyrazinamide levels in plasma, PZA + C, pyrazinamide 25 mg/kg with celecoxib 400 mg oral, geometric mean (min, max)
[12] = TB drug + Celecoxib: rifampicin 10 mg/kg with celecoxib 400 mg oral, RIF group, n = 7
[13] = TB drug alone: rifampicin 10 mg/kg single oral dose, RIF group, n = 9
[14] = TB drug alone: rifampicin 10 mg/kg single oral dose, RIF group, n = 9, listed as RIF

**Q.** Which “WBAcum(0–8)” value [1, 3] does the source give for `Cc1ccc(-c2cc(C(F)(F)F)nn2-c2ccc(S(N)(=O)=O)cc2)cc1` [Celecoxib, celecoxib] here?
**A.** 0.02 (0.01) ΔlogCFU

**Q.** What about the WBAmax [1, 3] of the same compound?
**A.** 0.12 (0.10) ΔlogCFU

**Q.** What about the “WBAcum(0–8)” value ([1]; Celecoxib alone 400 mg single oral dose, RIF + PZA groups combined, n = 18, cumulative over 8 h post-dose) of the same compound?
**A.** 0.03 ± 0.01 ΔlogCFU and 0.03 (0.01) ΔlogCFU

**Q.** What about the WBAmax ([1]; Celecoxib alone 400 mg single oral dose, RIF + PZA groups combined, n = 18, up to 8 h post-dose, negative = killing) of the same compound?
**A.** 0.14 (0.10) ΔlogCFU

**Q.** What about the “WBAcum(0–8)” value [1, 4] of the same compound?
**A.** 0.03 (0.01) ΔlogCFU

**Q.** What about the WBAmax [1, 4] of the same compound?
**A.** 0.17 (0.09) ΔlogCFU

**Q.** What about the “bactericidal activity in the WBA assay (in words)” value (shortened to “bactericidal activity”) [1] of the same compound?
**A.** no bactericidal activity; also recorded: no activity alone

**Q.** What about the “effect of celecoxib on rifampicin or pyrazinamide drug levels (in words)” value ([2]; celecoxib 400 mg co-administered with rifampicin 10 mg/kg or pyrazinamide 25 mg/kg) of the same compound?
**A.** no significant effect

**Q.** What about the “Cmax and AUC(0–8hrs) of celecoxib when co-administered with the TB drugs (in words)” value ([2]; celecoxib 400 mg with rifampicin or pyrazinamide versus alone) of the same compound?
**A.** non-significant trend towards lower

**Q.** And the “AUC(0–8)” value ([2]; celecoxib levels in plasma, C alone, celecoxib 400 mg single oral dose, geometric mean (min, max))?
**A.** 5.97 (2.91, 10.25) h*mg/L

**Q.** What about the Cmax ([2]; 400 mg, celecoxib levels in plasma, C alone, celecoxib 400 mg single oral dose, geometric mean (min, max)) of the same compound?
**A.** 1140 ng/mL

**Q.** And the Tmax ([2]; 400 mg, celecoxib levels in plasma, C alone, celecoxib 400 mg single oral dose)?
**A.** 2 h

**Q.** What about the half-life ([2]; 400 mg, t1/2, celecoxib levels in plasma, C alone, celecoxib 400 mg single oral dose) of the same compound?
**A.** 4.48 h

**Q.** What about the AUC(0-t) [2, 5] of the same compound?
**A.** 4230 ng·h/mL

**Q.** What about the AUC(0-t) [2, 6] of the same compound?
**A.** 4530 ng·h/mL

**Q.** What about the Cmax [2, 5] of the same compound?
**A.** 760 ng/mL

**Q.** What about the Cmax [2, 6] of the same compound?
**A.** 890 ng/mL

**Q.** What about the Tmax ([2]; celecoxib levels in plasma, PZA + C, celecoxib 400 mg with pyrazinamide 25 mg/kg oral) of the same compound?
**A.** 3 h

**Q.** And the Tmax ([2]; celecoxib levels in plasma, RIF + C, celecoxib 400 mg with rifampicin 10 mg/kg oral)?
**A.** 2 h

**Q.** What about the half-life ([2]; t1/2, celecoxib levels in plasma, PZA + C, celecoxib 400 mg with pyrazinamide 25 mg/kg oral, includes 24 hour data where available) of the same compound?
**A.** 7.28 h

**Q.** What about the half-life ([2]; t1/2, celecoxib levels in plasma, RIF + C, celecoxib 400 mg with rifampicin 10 mg/kg oral, includes 24 hour data where available) of the same compound?
**A.** 6.65 h

**Q.** With `NC(=O)c1cnccn1` [Pyrazinamide, pyrazinamide] as the compound, how does the “WBAcum(0–8), mean difference for TB drug with and without celecoxib (95% CI)” value ([1]; PZA group, paired data n = 9) read?
**A.** −0.01 (−0.03, 0.00) ΔlogCFU

**Q.** What about the “WBAmax, mean difference for TB drug with and without celecoxib (95% CI)” value ([1]; PZA group, paired data n = 9) of the same compound?
**A.** −0.09 (−0.22, 0.04) ΔlogCFU

**Q.** And the “WBAcum(0–8)” value [1, 7]?
**A.** 0.00 (0.01) ΔlogCFU

**Q.** And the WBAmax [1, 7]?
**A.** −0.12 (0.10) ΔlogCFU

**Q.** What about the “WBAcum(0–8)” value [1, 8] of the same compound?
**A.** 0.01 ± 0.03 ΔlogCFU

**Q.** What about the WBAmax [1, 8] of the same compound?
**A.** −0.03 ± 0.23 ΔlogCFU

**Q.** What about the “WBAcum(0–8)” value [1, 9] of the same compound?
**A.** 0.01 (0.03) ΔlogCFU

**Q.** And the WBAmax [1, 9]?
**A.** −0.03 (0.23) ΔlogCFU

**Q.** What about the “bactericidal activity” value [1] of the same compound?
**A.** no bactericidal activity; also recorded: appeared to be bacteriostatic

**Q.** And the AUC(0-t) [2, 10]?
**A.** 207000 ng·h/mL

**Q.** What about the Cmax [2, 10] of the same compound?
**A.** 35500 ng/mL

**Q.** What about the Tmax ([2]; 25 mg/kg, pyrazinamide levels in plasma, PZA alone, 25 mg/kg single oral dose) of the same compound?
**A.** 1 h

**Q.** What about the half-life ([2]; 25 mg/kg, t1/2, pyrazinamide levels in plasma, PZA alone, 25 mg/kg single oral dose) of the same compound?
**A.** 11.4 h

**Q.** And the AUC(0-t) [2, 11]?
**A.** 212000 ng·h/mL

**Q.** And the Cmax [2, 11]?
**A.** 35100 ng/mL

**Q.** What about the Tmax ([2]; pyrazinamide levels in plasma, PZA + C, pyrazinamide 25 mg/kg with celecoxib 400 mg oral) of the same compound?
**A.** 1 h

**Q.** And the half-life ([2]; t1/2, pyrazinamide levels in plasma, PZA + C, pyrazinamide 25 mg/kg with celecoxib 400 mg oral, includes 24 hour data where available)?
**A.** 11.2 h

**Q.** With `CO[C@H]1/C=C/O[C@@]2(C)Oc3c(C)c(O)c4c(O)c(c(/C=N/N5CCN(C)CC5)c(O)c4c3C2=O)NC(=O)/C(C)=C\C=C\[C@H](C)[C@H](O)[C@@H](C)[C@@H](O)[C@@H](C)[C@H](OC(C)=O)[C@@H]1C` [Rifampicin, rifampicin] as the compound, how does the “WBAcum(0–8), mean difference for TB drug with and without celecoxib (95% CI)” value ([1]; RIF group, paired data n = 7) read?
**A.** 0.00 (−0.02, 0.02) ΔlogCFU

**Q.** What about the “WBAmax, mean difference for TB drug with and without celecoxib (95% CI)” value ([1]; RIF group, paired data n = 7) of the same compound?
**A.** −0.03 (−0.25, 0.18) ΔlogCFU

**Q.** What about the “WBAcum(0–8)” value [1, 12] of the same compound?
**A.** −0.22 (0.03) ΔlogCFU

**Q.** What about the WBAmax [1, 12] of the same compound?
**A.** −2.51 (0.23) ΔlogCFU

**Q.** And the “WBAcum(0–8)” value [1, 13]?
**A.** −0.22 ± 0.02 ΔlogCFU

**Q.** What about the WBAmax [1, 13] of the same compound?
**A.** −2.48 ± 0.24 ΔlogCFU

**Q.** And the “WBAcum(0–8)” value [1, 14]?
**A.** −0.22 (0.02) ΔlogCFU

**Q.** What about the WBAmax [1, 14] of the same compound?
**A.** −2.48 (0.24) ΔlogCFU

**Q.** And the “bactericidal activity” value [1]?
**A.** strong bactericidal activity

**Q.** What about the AUC(0-t) (clinical; AUC(0–8)) of the same compound?
**A.** 92300 ng·h/mL

**Q.** And the Cmax (clinical; Cmax)?
**A.** 19300 ng/mL

**Q.** And the Tmax (clinical; Tmax)?
**A.** 1 h
